Several values for one entry are separate records, joined by “and”; a condition that tells them apart may be missing. Identical values can stand only once.
System: MEK
Assay: Cellular assay for measuring MEK inhibition, C26CPA1 (inhibition of ERK phosphorylation in C26 cells)
Format: cell-based, murine
Settings: for C26CPA1 % Inhibition @ 0.1 μM / C26CPA1 % Inhibition @ 1 μM: C26 cells; for IC50: murine colon 26 (C26) carcinoma cells, one hour at 37 C
Experimental: Cellular Assay for Measuring MEK Inhibition
MEK inhibitors were evaluated by determining their ability to inhibit phosphorylation of MAP kinase (ERK) in murine colon 26 (C26) carcinoma cells. Since ERK1 and ERK2 represent the only known substrates for MEK1 and MEK2, the measurement of inhibition of ERK phosphorylation in cells provides direct read out of cellular MEK inhibition by the compounds of the invention. Detection of phosphorylation of ERK was carried out either by Western blot or ELISA format. Briefly, the assays involve treatment of exponentially growing C26 cells with varying concentrations of the test compound (or vehicle control) for one hour at 37≡ C. For Western blot assay, cells were rinsed free of compound/vehicle and lysed in a solution containing 70 mM NaCl, 50 mM glycerol phosphate, 10 mM HEPES, […], 1% Triton X-100, 1 mM Na3VO4, 100 μM PMSF, 10 μM leupeptin and 10 μM pepstatin. Supernatants were then subjected to gel electrophoresis and hybridized to a primary antibody recognizing dually phosphorylated ERK1 and ERK2. To evaluate total MAPK levels, blots were subsequently ‘stripped’ and re-probed with a 1:1 mixture of polyclonal antibodies recognizing unphosphorylated ERK1 and ERK2. For pERK ELISA assay, pERK TiterZyme Enzyme immunometric Assay kits were acquired from Assay Designs, Inc (Ann Arbor, Mich.). Briefly, cells were harvested in lysis solution containing 50 mM β-glycerophosphate, 10 mM HEPES, pH7.4, 70 mM NaCl, 2 mM EDTA and 1% SDS and protein lysates were diluted 1:15 with supplied Assay buffer prior to the execution of the assay. The subsequent steps were carried out essentially as recommended by the manufacturer.

| Compound | C26CPA1 % Inhibition @ 0.1 μM | C26CPA1 % Inhibition @ 1 μM | IC50 |
| --- | --- | --- | --- |
| CC(Nc1nnc(-c2ccc(F)c(F)c2Nc2ccc(I)cc2F)o1)C(C)(C)C (stereo not drawn) [Example 49, {5-[3,4-Difluoro-2-(2-fluoro-4-iodo-phenylamino)-phenyl]-[1,3,4]oxadiazol-2-yl}-(1,2,2-trimethyl-propyl)-amine] | 0% | 0% | – |
| CCC(C)CNc1nnc(-c2ccc(F)c(F)c2Nc2ccc(I)cc2F)o1 (stereo not drawn) [Example 50, {5-[3,4-Difluoro-2-(2-fluoro-4-iodo-phenylamino)-phenyl]-[1,3,4]oxadiazol-2-yl}-(2-methyl-butyl)-amine] | 0% | 15.2% | – |
| Fc1cc(I)ccc1Nc1c(-c2nnc(NC3CC4CCC3C4)o2)ccc(F)c1F (stereo not drawn) [Example 51, Bicyclo[2,2,1]hept-2-yl-{5-[3,4-difluoro-2-(2-fluoro-4-iodo-phenylamino)-phenyl]-[1,3,4]oxadiazol-2-yl}-amine] | 13.1% | 96% | – |
| Cn1cccc1CCNc1nnc(-c2ccc(F)c(F)c2Nc2ccc(I)cc2F)o1 [Example 52, {5-[3,4-Difluoro-2-(2-fluoro-4-iodo-phenylamino)-phenyl]-[1,3,4]oxadiazol-2-yl}-[2-(1-methyl-1H-pyrrol-2-yl)-ethyl]-amine] | – | – | 86 nM |
| Cn1cnc(CCNc2nnc(-c3ccc(F)c(F)c3Nc3ccc(I)cc3F)o2)c1 [Example 53, {5-[3,4-Difluoro-2-(2-fluoro-4-iodo-phenylamino)-phenyl]-[1,3,4]oxadiazol-2-yl}-[2-(1-methyl-1H-imidazol-4-yl)-ethyl]-amine] | – | – | 230 nM |
| Fc1cc(I)ccc1Nc1c(-c2nnc(N3CCCC3CN3CCCC3)o2)ccc(F)c1F (stereo not drawn) [Example 54, {2,3-Difluoro-6-[5-(2-pyrrolidin-1-ylmethyl-pyrrolidin-1-yl)-[1,3,4]oxadiazol-2-yl]-phenyl}-(2-fluoro-4-iodo-phenyl)-amine] | 21.7% | 30.8% | – |
| COCC(C)Nc1nnc(-c2ccc(F)c(F)c2Nc2ccc(I)cc2F)o1 (stereo not drawn) [Example 55, {5-[3,4-Difluoro-2-(2-fluoro-4-iodo-phenylamino)-phenyl]-[1,3,4]oxadiazol-2-yl}-(2-methoxy-1-methyl-ethyl)-amine] | 23.9% | 25.2% | – |
| CCOCCCNc1nnc(-c2ccc(F)c(F)c2Nc2ccc(I)cc2F)o1 [Example 56, {5-[3,4-Difluoro-2-(2-fluoro-4-iodo-phenylamino)-phenyl]-[1,3,4]oxadiazol-2-yl}-(3-ethoxy-propyl)-amine] | – | – | 44 nM |
| O=C1OCCC1Nc1nnc(-c2ccc(F)c(F)c2Nc2ccc(I)cc2F)o1 (stereo not drawn) [Example 57, 3-{5-[3,4-Difluoro-2-(2-fluoro-4-iodo-phenylamino)-phenyl]-[1,3,4]oxadiazol-2-ylamino}-dihydro-furan-2-one] | 31.3% | 51.8% | – |
| CCOC(=O)CCNc1nnc(-c2ccc(F)c(F)c2Nc2ccc(I)cc2F)o1 [Example 58, 3-{5-[3,4-Difluoro-2-(2-fluoro-4-iodo-phenylamino)-phenyl]-[1,3,4]oxadiazol-2-ylamino}-propionic Acid Ethyl Ester] | 0% | 17.8% | – |
| Cc1cccc(C)c1OCC(C)Nc1nnc(-c2ccc(F)c(F)c2Nc2ccc(I)cc2F)o1 (stereo not drawn) [Example 59, {5-[3,4-Difluoro-2-(2-fluoro-4-iodo-phenylamino)-phenyl]-[1,3,4]oxadiazol-2-yl}-[2-(2,6-dimethyl-phenoxy)-1-methyl-ethyl]-amine] | 0% | 0% | – |
| CCN(CC)C1CCN(c2nnc(-c3ccc(F)c(F)c3Nc3ccc(I)cc3F)o2)C1 (stereo not drawn) [Example 60, (1-{5-[3,4-Difluoro-2-(2-fluoro-4-iodo-phenylamino)-phenyl]-[1,3,4]oxadiazol-2-yl}-pyrrolidin-3-yl)-diethyl-amine] | 8.2% | 68% | – |
| CN1CCCN(c2nnc(-c3ccc(F)c(F)c3Nc3ccc(I)cc3F)o2)CC1 [Example 61, {2,3-Difluoro-6-[5-(4-methyl-[1,4]diazepan-1-yl)-[1,3,4]oxadiazol-2-yl]-phenyl}-(2-fluoro-4-iodo-phenyl)-amine] | – | – | 850 nM |
| CN1CCCC1CCNc1nnc(-c2ccc(F)c(F)c2Nc2ccc(I)cc2F)o1 (stereo not drawn) [Example 62, {5-[3,4-Difluoro-2-(2-fluoro-4-iodo-phenylamino)-phenyl]-[1,3,4]oxadiazol-2-yl}-[2-(1-methyl-pyrrolidin-2-yl)-ethyl]-amine] | 53.7% | 98.5% | – |
| Fc1cc(I)ccc1Nc1c(-c2nnc(NCCCCN3CCCC3)o2)ccc(F)c1F [Example 63, {5-[3,4-Difluoro-2-(2-fluoro-4-iodo-phenylamino)-phenyl]-[1,3,4]oxadiazol-2-yl}-(4-pyrrolidin-1-yl-butyl)-amine] | – | – | 23 nM |
| CCN(CC)CCCC(C)Nc1nnc(-c2ccc(F)c(F)c2Nc2ccc(I)cc2F)o1 (stereo not drawn) [Example 64, N*4*-{5-[3,4-Difluoro-2-(2-fluoro-4-iodo-phenylamino)-phenyl]-[1,3,4]oxadiazol-2-yl}-N*1* ,N*1*-diethyl-pentane-1,4-diamine] | 0% | 18.2% | – |
| Fc1cc(I)ccc1Nc1c(-c2nnc(NCC3CCCO3)o2)ccc(F)c1F (stereo not drawn) [Example 65, {5-[3,4-Difluoro-2-(2-fluoro-4-iodo-phenylamino)-phenyl]-[1,3,4]oxadiazol-2-yl}-(tetrahydro-furan-2-ylmethyl)-amine] | 0% | 12.7% | – |
| COCCN(CCOC)c1nnc(-c2ccc(F)c(F)c2Nc2ccc(I)cc2F)o1 [Example 66, {5-[3,4-Difluoro-2-(2-fluoro-4-iodo-phenylamino)-phenyl]-[1,3,4]oxadiazol-2-yl}-bis-(2-methoxy-ethyl)-amine] | 0% | 12.5% | – |
| CCc1ccc(Nc2c(-c3nnc(N4CCCC4)o3)ccc(F)c2F)c(F)c1 [Example 75, [2,3-Difluoro-6-(5-pyrrolidin-1-yl-1,3,4-oxadiazol-2-yl)-phenyl]-(4-ethyl-2-fluoro-phenyl)-amine] | – | 39.1% and 30.6% | – |
| C=CCN(CC=C)c1nnc(-c2ccc(F)c(F)c2Nc2ccc(CC)cc2F)o1 [Example 83, Diallyl-{5-[2-(4-ethyl-2-fluoro-phenylamino)-3,4-difluoro-phenyl]-1,3,4-oxadiazol-2-yl}-amine] | 65.6% | 77.9% | – |
| CCc1ccc(Nc2c(-c3nnc(N(C)CCCN(C)C)o3)ccc(F)c2F)c(F)c1 [Example 93, N^1-{5-[2-(4-Ethyl-2-fluoro-phenylamino)-3,4-difluoro-phenyl]-1,3,4-oxadiazol-2-yl}-N1,N>3,N>3-trimethyl-propane-1.3-diamine] | 0% | 31.9% | – |

Reference: patent publication US20050004186A1, “MEK inhibiting compounds” (Pfizer Inc, priority 2002, published 2005)
